Test results as given in US8163909B2, “Substituted hydroxyethyl amine compounds as beta-secretase modulators and methods of use” (Amgen Inc., priority 2007, dated 2012).
pIC50: −log10 of the molar value. Like-named read-outs stand apart in the source and are kept apart here.

Legend:
[1] = test system: Aβ40 in conditioned medium of cells stably expressing Amyloid Precursor Protein (APP); assay: In vitro BACE cell-based assay (Aβ40 in conditioned medium, sandwich ELISA); conditions: Homo sapiens; for IC50: IC50's in uM;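 as to all read-outs here: compounds added as a dilution series, secreted peptide quantified by europium time-resolved fluorescence readout, potency fitted from percent of control versus compound concentration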
CYP2D6 = CYP2D6 (Homo sapiens, UniProt P10635); assay: CYP2D6 inhibition assay (bufuralol, pooled human liver microsomes); conditions: for IC50: 2D6 IC50 (uM)
CYP3A4 (CYP3A) = CYP3A4 (CYP3A) (Homo sapiens, UniProt P08684); assay: in vitro; conditions: microsomes, pH 7.4;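 also: inhibition of CYP3A-mediated 1-hydroxymidazolam formation after 10 min incubation with NADPH, quantified by HPLC MS relative to metabolite produced without test compound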
[2] = Microsomal stability assay, rat liver microsomes;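 also: rat liver microsomes (0.25 mg/mL) with about 1 µM compound plus 1 mM NADPH, pH 7.4, 37 °C for 30 min, parent left measured by LC-MS/MS against 0 min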
[3] = molecular target: Beta Secretase enzyme (BACE) (Homo sapiens, UniProt P56817); assay: In vitro enzymatic BACE FRET (fluorescence resonance energy transfer) assay; type: biochemical; conditions: for IC50: IC50's in uM;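 as to all read-outs here: fluorescence read after 1 h with 50 nM quenched peptide substrate spanning the BACE cleavage site, in pH 4.2 acetate buffer containing 10% DMSO and nonionic detergent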
[4] = Microsomal stability assay, human liver microsomes;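 also: pooled human liver microsomes at 0.25 mg/mL with 1 µM compound and NADPH at 37 °C, pH 7.4, for 30 min, unchanged parent quantified by LC-MS/MS against the 0 min sample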
[5] = 2D6 IC50, CYP enzyme inhibition
[6] = BACE enzyme assay, read-out: BACE1 FRET assay
[7] = HEK293, HEK cells, read-out: HEK cell assay (IC50)
[8] = read-out: BACE1 FRET assay (IC50)
[9] = HEK293, Table 2, HEK cells, read-out: HEK cell assay
[10] = Table 2, read-out: BACE1 FRET assay
[11] = HEK293, HEK cell-based assay IC50, read-out: HEK cell assay
[12] = BACE enzyme assay IC50, read-out: BACE1 FRET assay

CYP3A4 (CYP3A), sequence (P08684 2-503): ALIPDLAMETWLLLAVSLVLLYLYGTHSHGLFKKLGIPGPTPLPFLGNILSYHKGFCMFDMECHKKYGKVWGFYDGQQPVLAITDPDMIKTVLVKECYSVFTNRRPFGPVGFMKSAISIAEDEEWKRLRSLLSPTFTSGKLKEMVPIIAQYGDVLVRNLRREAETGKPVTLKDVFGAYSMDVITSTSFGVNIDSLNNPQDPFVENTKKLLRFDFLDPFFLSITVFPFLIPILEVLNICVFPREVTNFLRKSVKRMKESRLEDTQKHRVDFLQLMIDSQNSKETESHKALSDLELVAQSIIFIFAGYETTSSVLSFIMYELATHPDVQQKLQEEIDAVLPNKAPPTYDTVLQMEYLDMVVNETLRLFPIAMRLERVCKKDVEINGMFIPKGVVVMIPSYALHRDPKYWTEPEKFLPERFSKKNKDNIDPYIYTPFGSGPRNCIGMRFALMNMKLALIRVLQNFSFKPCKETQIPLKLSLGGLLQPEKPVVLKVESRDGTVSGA
Beta Secretase enzyme (BACE), sequence (P56817 46-501): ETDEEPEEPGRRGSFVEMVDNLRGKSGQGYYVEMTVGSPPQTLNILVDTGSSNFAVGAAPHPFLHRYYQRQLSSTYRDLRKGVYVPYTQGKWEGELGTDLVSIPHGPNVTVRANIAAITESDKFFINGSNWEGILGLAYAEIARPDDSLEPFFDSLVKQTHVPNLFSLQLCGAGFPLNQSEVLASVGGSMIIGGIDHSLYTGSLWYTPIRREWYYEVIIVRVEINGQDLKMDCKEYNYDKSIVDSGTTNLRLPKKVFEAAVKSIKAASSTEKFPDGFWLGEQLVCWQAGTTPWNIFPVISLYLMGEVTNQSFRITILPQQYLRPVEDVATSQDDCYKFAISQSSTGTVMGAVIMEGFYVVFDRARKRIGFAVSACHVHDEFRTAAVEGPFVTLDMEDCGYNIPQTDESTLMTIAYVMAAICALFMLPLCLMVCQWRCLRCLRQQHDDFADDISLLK
CYP2D6, sequence (P10635 whole entry): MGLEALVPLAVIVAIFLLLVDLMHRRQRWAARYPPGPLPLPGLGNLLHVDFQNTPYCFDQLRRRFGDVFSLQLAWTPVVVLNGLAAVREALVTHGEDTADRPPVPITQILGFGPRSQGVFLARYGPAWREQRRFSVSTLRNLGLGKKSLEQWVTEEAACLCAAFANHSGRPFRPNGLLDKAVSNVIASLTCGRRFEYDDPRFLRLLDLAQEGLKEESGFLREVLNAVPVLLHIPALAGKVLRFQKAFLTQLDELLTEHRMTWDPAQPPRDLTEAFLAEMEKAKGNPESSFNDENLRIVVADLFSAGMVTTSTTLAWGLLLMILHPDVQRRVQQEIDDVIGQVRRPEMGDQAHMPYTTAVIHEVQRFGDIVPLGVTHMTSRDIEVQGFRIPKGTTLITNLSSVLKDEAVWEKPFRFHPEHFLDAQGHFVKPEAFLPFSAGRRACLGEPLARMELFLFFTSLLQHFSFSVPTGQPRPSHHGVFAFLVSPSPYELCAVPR

Row | SMILES | pIC50 (CYP3A4 (CYP3A)) | RLM ([2]; rat liver microsomal data) [µL/min/mg] | HLM ([4]; human liver microsomal data) [µL/min/mg] | RLM ([2]; rat liver microsomes) [µL/min/mg] | HLM ([4]; human liver microsomes) [µL/min/mg] | further results
1 | COC(OC)C(=O)N[C@@H](Cc1cc(F)cc(-c2nccs2)c1)[C@H](O)CN[C@H]1CC2(CCC2)Oc2ncc(CC(C)(C)C)cc21 [compound 871] | 6.70 | 73 | 59 |  |  | IC50 ([1]; HEK293, cell-based assay, HEK cells, read-out: HEK cell assay): 0.01 µM; pIC50 (CYP2D6; [5]): 6.15; IC50 [3, 6]: 0.007 µM
2 | CC(=O)N[C@@H](Cc1cc(F)cc(F)c1)[C@H](O)CN[C@H]1CC2(CCC2)Oc2c1cc(CC(C)(C)C)nc2-c1cscn1 [compound 510] | 5.96 | 358 | 380 |  |  | pIC50 ([1]; HEK293, HEK cells, read-out: HEK cell assay): 7.77; IC50 (CYP2D6; CYP enzyme inhibition): 10.3 µM; pIC50 [3, 6]: 8.10
3 | CO[C@H](C)C(=O)N[C@@H](Cc1ccc2c(c1)OCO2)[C@H](O)CN[C@H]1CC2(CCC2)Oc2cnc(CC(C)C)cc21 [compound 666] | ≥ 7.52 |  |  | 228 | 140 | pIC50 [1, 7]: 6.76; pIC50 (CYP2D6; 2D6 IC50, CYP2D6 inhibition): 5.62; pIC50 [3, 8]: 6.91
4 | COCC(=O)N[C@@H](Cc1cc(F)cc(F)c1)[C@H](O)CN[C@H]1CC2(CCC2)Oc2c1cc(CC(C)(C)C)cc2-n1ccnc1 [compound 475] | 7.30 | 128.5 | 26 |  |  | pIC50 [1, 9]: 8.10; pIC50 (CYP2D6; [5]): 5.76; pIC50 [3, 10]: 7.74
5 | COCC(=O)N[C@@H](Cc1ccc(F)cc1)[C@H](O)CN[C@H]1CC(C)(C)Oc2c1cc(Br)c1c2OCO1 [compound 745] | 6.30 |  |  | 177 | 179 | pIC50 [1, 11]: 6.64; IC50 (CYP2D6; CYP2D6 inhibition): 3.1 µM; pIC50 [3, 12]: 5.24
6 | CC(=O)CC(=O)N[C@@H](Cc1cccc(F)c1)[C@H](O)CN[C@H]1CC2(CCC2)Oc2ncc(CC(C)(C)C)cc21 [compound 466] | 5.92 | 165 | 296 |  |  | pIC50 [1, 9]: 8.10; pIC50 (CYP2D6; [5]): 5.05; pIC50 [3, 10]: 8.40
7 | CC(=O)N[C@@H](Cc1ccc(-c2cscn2)cc1)[C@H](O)CN[C@H]1CC2(CCC2)Oc2ncc(CC(C)(C)C)cc21 [compound 693] | 6.70 |  |  | 63 | 110 | pIC50 [1, 11]: 7.22; IC50 (CYP2D6; CYP2D6 inhibition): 2.9 µM; pIC50 [3, 12]: 7.37
8 | CO[C@H](C)C(=O)N[C@@H](Cc1cc(F)cc(-c2nccs2)c1)[C@H](O)CN[C@H]1CC2(CCC2)Oc2ccc(CC(C)C)cc21 [compound 770] | 6.52 | 201 | 145 |  |  | IC50 ([1]; HEK293, HEK cell-based assay, read-out: HEK cell assay): 0.052 µM; IC50 (CYP2D6; CYP enzyme inhibition): 0.5 µM; IC50 [3, 6]: 0.01 µM
9 | COCC(=O)N[C@@H](Cc1ccc(F)cc1)[C@H](O)CN[C@H]1CC(C)(C)Oc2ncc(CC(C)(C)C)cc21 [compound 663] | 5.77 |  |  | 133 | 163 | pIC50 [1, 7]: 7.68; pIC50 (CYP2D6; 2D6 IC50, CYP2D6 inhibition): 4.98; pIC50 [3, 8]: 7.89
10 | CC(=O)N[C@@H](Cc1cccc(-n2ccnc2)c1)[C@H](O)CN[C@H]1CC2(CCC2)Oc2ncc(CC(C)(C)C)cc21 [compound 615, N-((1S,2R)-3-(((4′S)-6′-(2,2-dimethylpropyl)-3′,4′-dihydrospiro[cyclobutane-1,2′-pyrano[2,3-b]pyridin]-4′-yl)amino)-2-hydroxy-1-(3-(1H-imidazol-1-yl)benzyl)propyl)acetamide] | 6.80 |  |  | 32 | 59 | pIC50 [1, 7]: 8.15; pIC50 (CYP2D6; 2D6 IC50, CYP2D6 inhibition): 6.80; pIC50 [3, 8]: 7.22
11 | Cc1ccccc1CN1CCO[C@H](C(=O)N[C@@H](Cc2ccc(F)cc2)[C@H](O)CN[C@H]2CC3(CCC3)Oc3ncc(CC(C)(C)C)cc32)C1 [compound 697] | 6.70 |  |  | 399 | 775 | pIC50 [1, 11]: 6.84; IC50 (CYP2D6; CYP2D6 inhibition): 2.7 µM; pIC50 [3, 12]: 7.06
